Test results reported in US12050218B2, “Mitochondrial protease OMA1 as a marker for breast cancer” (NUtech Ventures, priority 2017, dated 2024).

How the values were obtained:
[1] = test system: oma1−/− mouse embryonic fibroblasts; assay: Cell viability / growth rate of MEF cells under glutamate pathway inhibition; assay type: cell-based; settings: 10 μM BPTES, low glucose or 10 mM galactose medium; oma1−/− vs wild type MEFs (FIG. 1B)
Procedure: FIG. 1A depicts extracellular acidification rates (ECAR) in wild type and oma1^−/− mouse embryonic fibroblasts under basal, FCCP-stimulated, and glycolysis-ablating (2-DG) conditions. Cells were cultured in the media containing 10 mM glucose. Data are shown as mean values of 3 independent experiments±S.E.M.; **p<0.01, by unpaired t-test. FIG. 1B depicts growth rate of wild type (WT) and oma1^−/− MEF cells under conditions of glutamate pathway inhibition by BPTES. Cells were cultured in the 10 mM galactose-containing medium with (left panel) or without (right panel) 10 μM BPTES for the indicated periods of time and the number of viable cells at each time point has been assessed. […] FIG. 1D depicts the prevalence of cells with protrusions was analyzed in WT and oma1^−/− MEF cells two days after re-seeding on 6-well plates after one week of growth at 100% confluence. […] Of the cells in the field of view, the number of cells with long lamellopodia and cells with normal lamellopodia were counted. […]
(§1) The wild type and oma1^−/− mouse embryonic fibroblasts (24, obtained from Dr. Carlos Lopez-Otin, University of Oviedo) were seeded into 12-well plates at the density of 4×10^4 cells per well. […] Every 24 hours cells, from one well per condition were trypsinized with 0.05% Trypsin (Life Technologies), washed with Ca-, Mg-PBS, resuspended and counted in Countess Automated Cell Counter (Life Technologies). […]

[2] = test system: OMA1-depleted 21MT-1 cells; assay: Growth rate of control and OMA1-depleted 21MT-1 cells under glutamate pathway inhibition; assay type: cell-based, human; settings: 10 μM BPTES, 10 mM galactose medium; OMA1 KD vs control 21MT-1 cells (FIG. 3C)
Procedure: FIG. 3A depicts a representative oxygen consumption rate (OCR) graph in control and OMA1-depleted 21MT-1 cells under basal, oligomycin A (OLA), FCCP, and Antimycin A/Rotenone (AA+Rot.) stimulated conditions. Cells were cultured in the medium containing 10 mM galactose. FIG. 3B depicts respiratory control ratios in control and OMA1 KD 21MT-1 cells cultured in 10 mM galactose medium. Data represent the mean±S.E.M. (n=3 biological replicates); *p<0.05, by t-test. FIG. 3C depicts the growth rate of control and OMA1-depleted 21MT-1 cells under conditions of glutamate pathway inhibition. Cells were cultured in the 10 mM galactose-containing medium in the presence of 10 μM BPTES for the indicated periods of time and the number of viable cells at each time point has been assessed. Data represent the mean±S.D. (n=3 biological replicates); *p<0.05, ***p<0.001, by unpaired t-test.
as §1

O=C(Cc1ccccc1)Nc1nnc(CCSCCc2nnc(NC(=O)Cc3ccccc3)s2)s1 [BPTES]
proliferation of oma1−/− MEFs compared with wild type cells [1]: proliferated at much slower rates than wild type cells | sensitivity of OMA1-depleted 21MT-1 cells to glutaminase inhibitor [2]: marked increase in sensitivity
